US20250188082A1, “Use of Hypoxanthine Compound In Preparation of Drug For Treating Pulmonary Fibrosis” (Sichuan Yiasuo Pharmaceutical Technology Co., Ltd., priority 2022, published 2025)

What follows are compounds tested on bleomycin-induced pulmonary fibrosis model (assay: Comparison with comparative drugs: bleomycin-induced model, hydroxyproline and TGF-β). Settings: 120 mg/kg/d intragastric, twice every day, 14 days, from two weeks after model; Day 15.
Type: in vivo, C57BL/6 mice

In order of falling “Hydroxyproline in bronchoalveolar lavage fluids” value:
1. CC(C)n1cnc2c(ncn2C(C)C)c1=S [Hypoxanthine analogue D]  1.94 ± 0.13 µg/mg
2. CC(C)n1cnc2c(=O)n(C)cnc21 [Compound E-6]  1.18 ± 0.15 µg/mg
3. CC(C)n1cnc2[nH]cnc2c1=S [Compound E-5]  1.17 ± 0.16 µg/mg
4. CC(C)n1cnc2[nH]cnc2c1=O [Compound E-2]  1.16 ± 0.28 µg/mg
5. CC(C)n1cnc2c(=N)[nH]cnc21 [Compound E-7]  1.15 ± 0.18 µg/mg
6. CC(C)n1cnc2c(=S)[nH]cnc21 [Compound E-4]  1.14 ± 0.18 µg/mg
7. CC(C)n1cnc2c(=O)[nH]cnc21 [Compound E-1]  1.14 ± 0.16 µg/mg
8. CC(C)n1cnc2[nH]cnc2c1=N [Compound E-8]  1.06 ± 0.19 µg/mg
9. CC(C)n1cnc2c(ncn2C(C)C)c1=O [Compound E-3]  1.03 ± 0.29 µg/mg

In order of falling “Hydroxyproline in lung tissues” value:
1. CC(C)n1cnc2c(=O)n(C)cnc21 [Compound E-6]  2.35 ± 0.24 µg/mg
2. CC(C)n1cnc2c(=O)[nH]cnc21 [Compound E-1]  2.18 ± 0.32 µg/mg
3. CC(C)n1cnc2c(ncn2C(C)C)c1=S [Hypoxanthine analogue D]  2.15 ± 0.35 µg/mg
4. CC(C)n1cnc2[nH]cnc2c1=S [Compound E-5]  2.15 ± 0.35 µg/mg
5. CC(C)n1cnc2c(ncn2C(C)C)c1=O [Compound E-3]  2.15 ± 0.23 µg/mg
6. CC(C)n1cnc2[nH]cnc2c1=N [Compound E-8]  2.03 ± 0.51 µg/mg
7. CC(C)n1cnc2c(=N)[nH]cnc21 [Compound E-7]  1.99 ± 0.25 µg/mg
8. CC(C)n1cnc2c(=S)[nH]cnc21 [Compound E-4]  1.98 ± 0.44 µg/mg
9. CC(C)n1cnc2[nH]cnc2c1=O [Compound E-2]  1.93 ± 0.24 µg/mg

In order of rising “TGF-β in bronchoalveolar lavage fluids” value:
1. CC(C)n1cnc2c(=O)n(C)cnc21 [Compound E-6]  6.14 ± 0.85 µg/L
2. CC(C)n1cnc2[nH]cnc2c1=O [Compound E-2]  6.21 ± 0.24 µg/L
3. CC(C)n1cnc2c(ncn2C(C)C)c1=O [Compound E-3]  6.35 ± 0.28 µg/L
4. CC(C)n1cnc2c(=N)[nH]cnc21 [Compound E-7]  6.38 ± 0.95 µg/L
5. CC(C)n1cnc2c(ncn2C(C)C)c1=S [Hypoxanthine analogue D]  6.42 ± 1.02 µg/L
6. CC(C)n1cnc2[nH]cnc2c1=N [Compound E-8]  6.51 ± 0.58 µg/L
7. CC(C)n1cnc2[nH]cnc2c1=S [Compound E-5]  6.51 ± 0.86 µg/L
8. CC(C)n1cnc2c(=O)[nH]cnc21 [Compound E-1]  6.51 ± 0.24 µg/L
9. CC(C)n1cnc2c(=S)[nH]cnc21 [Compound E-4]  6.84 ± 0.95 µg/L

In order of falling “TGF-β in lung tissues” value:
1. CC(C)n1cnc2c(ncn2C(C)C)c1=S [Hypoxanthine analogue D]  93.36 ± 8.51 µg/L
2. CC(C)n1cnc2[nH]cnc2c1=N [Compound E-8]  68.54 ± 2.25 µg/L
3. CC(C)n1cnc2c(=N)[nH]cnc21 [Compound E-7]  68.25 ± 2.58 µg/L
4. CC(C)n1cnc2[nH]cnc2c1=O [Compound E-2]  66.56 ± 1.95 µg/L
5. CC(C)n1cnc2[nH]cnc2c1=S [Compound E-5]  65.82 ± 3.54 µg/L
6. CC(C)n1cnc2c(=O)[nH]cnc21 [Compound E-1]  63.95 ± 2.19 µg/L
7. CC(C)n1cnc2c(=S)[nH]cnc21 [Compound E-4]  63.58 ± 2.95 µg/L
8. CC(C)n1cnc2c(=O)n(C)cnc21 [Compound E-6]  63.56 ± 6.54 µg/L
9. CC(C)n1cnc2c(ncn2C(C)C)c1=O [Compound E-3]  62.54 ± 1.28 µg/L
